Some test systems named below: K562; SK-MEL-2; KM12; A498; SF-268; SNB-75; RXF 393; RPMI-8226; NCI-H226; UACC-62; A549; HT-29; HCT-15; SK-OV-3; NCI-H23; MOLT-4; OVCAR-3; SK-MEL-5; MCF7; M14.
Holding throughout (assay): NCI-60 cell line screen, 48 h

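Values below derive from 48-hour exposures of cells grown in 96-well plates, with endpoints linearly interpolated between the two concentrations bracketing the appropriate inhibition level. GI50 is the concentration that inhibits growth by half.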 The source made the active and inactive calls. No stated cut-off is given here; in the data, active = GI50 up to about 1.1 µM and inactive = higher. Bounds are passed on as bounds.

Take `C#CCn1c(=O)c(C#N)c(O)c2cc3ccccc3nc21`: the GI50 in the assay with K562 is > 100 µM (inactive); in the assay with SK-MEL-2, > 100 µM (inactive); in the assay with KM12 it was > 100 µM (inactive); in the assay on A498, > 100 µM (inactive); in the assay with SF-268, > 31.6 µM (inactive); in the assay on SNB-75, > 100 µM (inactive). Further, the GI50 in the assay with RXF 393 is > 100 µM (inactive); in the assay on RPMI-8226, > 100 µM (inactive); in the assay with NCI-H226 it was > 84.1 µM (inactive); with UACC-62, > 100 µM (inactive); in the assay on A549, > 100 µM (inactive); in the assay on HT-29 it was > 100 µM (inactive). The GI50 was above 100 µM with HCT-15; > 100 µM (inactive) in the assay with SK-OV-3; > 100 µM (inactive) in the assay on NCI-H23; > 100 µM (inactive) in the assay with MOLT-4; > 100 µM (inactive) in the assay with OVCAR-3; > 100 µM (inactive) in the assay with SK-MEL-5. Besides, the GI50 in the assay on MCF7 was > 100 µM (inactive).
Consider `COC(=O)c1c2n(c3ccccc13)C[C@H]1OC(C)(C)O[C@@H]21`, for which the GI50 in the assay with K562 is > 100 µM (inactive); with SK-MEL-2, > 100 µM (inactive); in the assay with KM12 it was > 43.8 µM (inactive); in the assay on A498 it was > 100 µM (inactive); with SF-268, > 100 µM (inactive); in the assay with M14 it was > 100 µM (inactive). In addition, the GI50 in the assay with SNB-75, in the assay on RXF 393, with RPMI-8226, with NCI-H226, with UACC-62 and in the assay on A549 was > 100 µM (inactive) each time. The GI50 was > 100 µM (inactive) in the assay on HT-29; above 100 µM in the assay with HCT-15; > 100 µM (inactive) in the assay with SK-OV-3; > 100 µM (inactive) in the assay on NCI-H23; > 100 µM (inactive) in the assay with MOLT-4; > 100 µM (inactive) with OVCAR-3. The GI50 in the assay on SK-MEL-5 and in the assay with MCF7 was > 100 µM (inactive) in each case.
Regarding `CC(=O)OCCCCn1cnc2nc(Nc3ccccc3)nc(Cl)c21`, the GI50 in the assay on K562 is 99.1 µM (inactive); with SK-MEL-2, > 100 µM (inactive); in the assay on KM12, 91.4 µM (inactive); in the assay with A498, 73.1 µM (inactive); in the assay with SF-268, > 100 µM (inactive); in the assay with M14, 59.6 µM (inactive). The GI50 in the assay with SNB-75 was 50.7 µM (inactive); with RXF 393 it was 68.7 µM (inactive); in the assay with RPMI-8226 it was > 100 µM (inactive); with NCI-H226, 57 µM (inactive); in the assay with UACC-62, 33.7 µM (inactive); in the assay with A549, 61.7 µM (inactive). Further, the GI50 was 91.6 µM (inactive) in the assay with HT-29; 73.1 µM in the assay on HCT-15; 97.3 µM (inactive) in the assay on SK-OV-3; 66.5 µM (inactive) in the assay on MOLT-4; 55.1 µM (inactive) with OVCAR-3; 42.2 µM (inactive) in the assay on SK-MEL-5. Also, the GI50 in the assay with MCF7 was > 100 µM (inactive).
Turning to `CCN(CC)CCN(C(=O)c1ccc(F)cc1)c1ccccc1N`, the GI50 in the assay on K562, in the assay with SK-MEL-2, in the assay with KM12, with A498, in the assay with SF-268 and in the assay with M14 was > 10 µM (inactive) throughout. The GI50 with SNB-75 is > 10 µM (inactive); in the assay on RXF 393, > 10 µM (inactive); in the assay on RPMI-8226 it was > 10 µM (inactive); in the assay on NCI-H226 it was 3.72 µM (inactive); in the assay with UACC-62, > 10 µM (inactive); in the assay on A549, > 10 µM (inactive). The GI50 with HT-29 was > 10 µM (inactive); in the assay with HCT-15 it was above 10 µM; with SK-OV-3, > 10 µM (inactive); in the assay on NCI-H23, > 10 µM (inactive); with MOLT-4, > 10 µM (inactive); with OVCAR-3 it was > 10 µM (inactive). The GI50 with SK-MEL-5 and in the assay with MCF7 was > 10 µM (inactive) each time.
As for `COc1cc(C2c3cc4c(cc3OC(N3CCCCC3)C2C)OCO4)cc(OC)c1OC` (stereo not drawn), the GI50 in the assay on K562 is 2.44 µM (inactive); with SK-MEL-2, 3.45 µM (inactive); in the assay with KM12, 2.88 µM (inactive); in the assay with A498, 3.38 µM (inactive); with SF-268, 9.02 µM (inactive); in the assay with M14, 2.83 µM (inactive). The GI50 in the assay with SNB-75 was 4.47 µM (inactive); in the assay on RXF 393, 2.15 µM (inactive); in the assay with RPMI-8226 it was 4.18 µM (inactive); in the assay with NCI-H226, 3.39 µM (inactive); in the assay on UACC-62 it was 3.53 µM (inactive); with A549 it was 4.04 µM (inactive). Besides, the GI50 is 3.04 µM (inactive) in the assay with HT-29; 3.65 µM in the assay on HCT-15; 2.77 µM (inactive) in the assay with SK-OV-3; 3.41 µM (inactive) in the assay with NCI-H23; 3.9 µM (inactive) in the assay on MOLT-4; 1.9 µM (inactive) with OVCAR-3. Also, the figures for the GI50 in the assay with SK-MEL-5 and with MCF7 were 2.62 µM (inactive) and 1.44 µM (inactive), respectively.
As to `CC1CCC(O)/C=C/C(=O)OC(C)C(O)/C=C/C(=O)O1` (stereo not drawn), the GI50 is 41.9 µM (inactive) in the assay with K562; > 100 µM (inactive) with SK-MEL-2; > 100 µM (inactive) in the assay with KM12; > 100 µM (inactive) in the assay with A498; > 100 µM (inactive) with SF-268; > 56.1 µM (inactive) with M14. The GI50 in the assay on SNB-75 is > 100 µM (inactive); in the assay with RXF 393 it was > 62.1 µM (inactive); with RPMI-8226, 74.1 µM (inactive); in the assay on NCI-H226, > 100 µM (inactive); with UACC-62, > 100 µM (inactive); in the assay on A549 it was > 100 µM (inactive). For the same compound, the GI50 with HT-29 is > 100 µM (inactive); with HCT-15 it was above 94 µM; in the assay with SK-OV-3, > 100 µM (inactive); in the assay with NCI-H23 it was > 73.5 µM (inactive); in the assay on MOLT-4, 19.1 µM (inactive); in the assay with OVCAR-3 it was 57.1 µM (inactive). For the same compound, the GI50 in the assay with SK-MEL-5 is > 100 µM (inactive); in the assay with MCF7, > 92.9 µM (inactive).
Turning to `CCC1C(c2ccccc2O)c2cc3c(cc2OC1N1CCOCC1)OCO3` (stereo not drawn), the GI50 is 11.5 µM (inactive) in the assay with K562; 15.5 µM (inactive) in the assay on SK-MEL-2; 13 µM (inactive) in the assay on KM12; 14.3 µM (inactive) with A498; 14.7 µM (inactive) in the assay with SF-268; 15.1 µM (inactive) in the assay on M14. The GI50 with SNB-75 is 8.53 µM (inactive); in the assay with RXF 393 it was 13.3 µM (inactive); with RPMI-8226, 13.9 µM (inactive); with NCI-H226 it was 15.7 µM (inactive); with UACC-62 it was 13.1 µM (inactive); in the assay with A549 it was 14.4 µM (inactive). The GI50 in the assay with HT-29 is 13.6 µM (inactive); with HCT-15, 9.4 µM; in the assay with SK-OV-3, 22.2 µM (inactive); in the assay on NCI-H23 it was 18.2 µM (inactive); with MOLT-4, 6.44 µM (inactive); in the assay on OVCAR-3 it was 12.5 µM (inactive). Moreover, the GI50 in the assay with SK-MEL-5 is 16.7 µM (inactive); with MCF7 it was 14.4 µM (inactive).
Regarding `CC(C)(C)[Si](C)(C)OC1CCOC1(O)c1ccccn1` (stereo not drawn), the GI50 was 57.9 µM (inactive) in the assay with K562; > 100 µM (inactive) in the assay on SK-MEL-2; > 100 µM (inactive) in the assay on KM12; > 100 µM (inactive) with A498; > 100 µM (inactive) in the assay with SF-268; > 100 µM (inactive) in the assay with M14. The GI50 is > 100 µM (inactive) in the assay with SNB-75; > 100 µM (inactive) in the assay with RXF 393; 53.7 µM (inactive) with RPMI-8226; > 100 µM (inactive) in the assay with NCI-H226; > 100 µM (inactive) in the assay with UACC-62; > 100 µM (inactive) in the assay with A549. Besides, the GI50 in the assay with HT-29 is > 100 µM (inactive); in the assay with HCT-15 it was above 100 µM; with SK-OV-3, > 100 µM (inactive); with NCI-H23 it was > 100 µM (inactive); in the assay with MOLT-4 it was 57.3 µM (inactive); with OVCAR-3, > 100 µM (inactive). Also, the GI50 in the assay on SK-MEL-5 and in the assay on MCF7 was > 100 µM (inactive) throughout.
On to `O=C(O)C(C(=O)O)P(=S)(S)c1ccccc1` (stereo not drawn), for which the GI50 in the assay on K562, with SK-MEL-2, in the assay on KM12, in the assay with A498, with SF-268 and with M14 was > 100 µM (inactive) each time. The GI50 with SNB-75, in the assay on RXF 393, with RPMI-8226, with NCI-H226, with UACC-62 and in the assay with A549 was > 100 µM (inactive) in each case. Besides, the GI50 was > 100 µM (inactive) with HT-29; above 100 µM with HCT-15; > 100 µM (inactive) with SK-OV-3; > 100 µM (inactive) with NCI-H23; > 30.4 µM (inactive) in the assay with MOLT-4; > 100 µM (inactive) with OVCAR-3. The GI50 was > 31.6 µM (inactive) in the assay on SK-MEL-5 and > 100 µM (inactive) in the assay on MCF7.
`NCCCCN(CCCN)Cc1ccccc1`: the GI50 in the assay with K562, in the assay on SK-MEL-2, in the assay with KM12, in the assay with A498, in the assay on SF-268 and with M14 was > 100 µM (inactive) in each case. Also, the GI50 with SNB-75 was 20.1 µM (inactive); in the assay on RXF 393 it was > 100 µM (inactive); in the assay on RPMI-8226 it was > 100 µM (inactive); with NCI-H226, > 100 µM (inactive); with UACC-62, > 100 µM (inactive); in the assay with A549 it was > 100 µM (inactive). The GI50 in the assay on HT-29 was > 100 µM (inactive); in the assay on HCT-15, above 100 µM; in the assay with SK-OV-3, > 100 µM (inactive); in the assay with NCI-H23, > 100 µM (inactive); in the assay with MOLT-4 it was > 100 µM (inactive); in the assay on OVCAR-3 it was > 100 µM (inactive). In addition, the GI50 in the assay with SK-MEL-5 and in the assay on MCF7 was > 100 µM (inactive) each time.

For the origin of these results see ChEMBL document CHEMBL1201862, “PubChem BioAssay data set” (2004).
